# According to ChEMBL document CHEMBL3132761, “Construction of phenoxazine rings containing nitro and sulfonic acid groups leading to phenoxazine-3-sulfonamide derivatives: their evaluation as novel and potential insulin secretagogues” (Medchemcomm, 2014):
# Active and inactive are the calls of the source. The calls are words filed in the database; no cut-off is given here.
# How the values were obtained:
# Rattus norvegicus [1] = experiment: Antidiabetic activity in Wistar albino rat assessed as reversal of diabetic-induced SGPT level in liver at 10 mg/kg, po administered for 14 days measured on day 14 relative to control; format: functional
# Rattus norvegicus [2] = experiment: Hypoglycemic activity in 18 hrs fasted Wistar albino rat assessed as reduction of blood glucose level at 10 mg/kg, po after 4 hrs (reference value: 97.13 +/- 2.89 mg/dl); format: functional
# Rattus norvegicus [3] = experiment: Hypoglycemic activity in over night fasted Wistar albino rat assessed as reduction of blood glucose level at 10 mg/kg, po administered 30 mins before glucose challenge measured after 30 mins by intraperitoneal glucose tolerance test (reference value: 109.28 +/- 20.53 mg/dl); format: functional
# Rattus norvegicus [4] = experiment: Hypolipidemic activity in Wistar albino rat assessed as reduction of total cholesterol level at 10 mg/kg, po administered for 14 days measured on day 14 after 1 to 8 hrs relative to control; format: functional
# Rattus norvegicus [5] = experiment: Hypoglycemic activity in 18 hrs fasted Wistar albino rat assessed as reduction of blood glucose level at 10 mg/kg, po after 2 hrs (reference value: 101.03 +/- 1.93 mg/dl); format: functional
# Rattus norvegicus [6] = experiment: Antidiabetic activity in streptozotocin-nicotinamide-induced diabetic model of Wistar albino rat assessed as reduction of blood glucose level at 10 mg/kg, po after 1 hr relative to control; format: functional
# Rattus norvegicus [7] = experiment: Hypoglycemic activity in over night fasted Wistar albino rat assessed as reduction of blood glucose level at 10 mg/kg, po administered 30 mins before glucose challenge measured after 120 mins by intraperitoneal glucose tolerance test (reference value: 101.07 +/- 8.98 mg/dl); format: functional
# Rattus norvegicus [8] = experiment: Hypoglycemic activity in over night fasted Wistar albino rat assessed as reduction of blood glucose level at 10 mg/kg, po administered 30 mins before glucose challenge measured after 60 mins by intraperitoneal glucose tolerance test (reference value: 106.07 +/- 13.98 mg/dl); format: functional
# Rattus norvegicus [9] = experiment: Antidiabetic activity in streptozotocin-nicotinamide-induced diabetic model of Wistar albino rat assessed as reduction of blood glucose level at 10 mg/kg, po administered for 14 days measured on day 14 after 1 to 8 hrs relative to control; format: functional
# Rattus norvegicus [10] = experiment: Antidiabetic activity in Wistar albino rat assessed as reversal of diabetic-induced SGOT level in liver at 10 mg/kg, po administered for 14 days measured on day 14 relative to control; format: functional
# Rattus norvegicus [11] = experiment: Antidiabetic activity in streptozotocin-nicotinamide-induced diabetic model of Wistar albino rat assessed as reduction of blood glucose level at 10 mg/kg, po administered for 14 days measured on day 7 after 1 to 8 hrs relative to control; format: functional
# Rattus norvegicus [12] = experiment: Antidiabetic activity in Wistar albino rat assessed as reversal of diabetic-induced muscle wasting by measuring increase in body weight at 10 mg/kg, po administered for 14 days measured on day 14 relative to control; format: functional
# Rattus norvegicus [13] = experiment: Antidiabetic activity in streptozotocin-nicotinamide-induced diabetic model of Wistar albino rat assessed as reduction of blood glucose level at 10 mg/kg, po after 2 hrs relative to control; format: functional
# Rattus norvegicus [14] = experiment: Hypoglycemic activity in 18 hrs fasted Wistar albino rat assessed as reduction of blood glucose level at 10 mg/kg, po after 6 hrs (reference value: 101.01 +/- 1.60 mg/dl); format: functional
# Rattus norvegicus [15] = experiment: Hypolipidemic activity in Wistar albino rat assessed as reduction of serum triglyceride level at 10 mg/kg, po administered for 14 days measured on day 14 after 1 to 8 hrs relative to control; format: functional
# Rattus norvegicus [16] = experiment: Antidiabetic activity in streptozotocin-nicotinamide-induced diabetic model of Wistar albino rat assessed as reduction of blood glucose level at 10 mg/kg, po after 8 hrs relative to control; format: functional
# Rattus norvegicus [17] = experiment: Antidiabetic activity in streptozotocin-nicotinamide-induced diabetic model of Wistar albino rat assessed as granulated pancreatic islets with prominent hyperplasticity at 10 mg/kg, po administered for 14 days measured on day 14 relative to control; format: functional, organism-based; design: dose 10 mg/kg
# Rattus norvegicus [18] = experiment: Antidiabetic activity in streptozotocin-nicotinamide-induced diabetic model of Wistar albino rat assessed as reduction of blood glucose level at 10 mg/kg, po after 6 hrs relative to control; format: functional
# Rattus norvegicus [19] = experiment: Hypoglycemic activity in over night fasted Wistar albino rat assessed as reduction of blood glucose level at 10 mg/kg, po administered 30 mins before glucose challenge measured after 90 mins by intraperitoneal glucose tolerance test (reference value: 94.44 +/- 6.99 mg/dl); format: functional
# Rattus norvegicus [20] = experiment: Antidiabetic activity in streptozotocin-nicotinamide-induced diabetic model of Wistar albino rat assessed as reduction of blood glucose level at 10 mg/kg, po after 4 hrs relative to control; format: functional
# Hepatocyte [21] = experiment: Cytotoxicity against rat primary hepatocytes after 6 hrs; format: cell-based
# Hepatocyte [22] = experiment: Cytotoxicity against rat primary hepatocytes after 16 hrs; format: cell-based
smiles,measurement,setting,value
COc1ccc(Cl)cc1C(=O)NCCc1ccc(S(=O)(=O)NC(=O)NC2CCCCC2)cc1 [GLYBURIDE],Activity,Rattus norvegicus [1],42 U/dl
same,Activity,Rattus norvegicus [2],63.73 mg/dL
same,Activity,Rattus norvegicus [3],107.85 mg/dL
same,Activity,Rattus norvegicus [4],57.8 mg/dL
same,Activity,Rattus norvegicus [5],90.2 mg/dL
same,Activity,Rattus norvegicus [6],147.2 mg/dL
same,Activity,Rattus norvegicus [7],91.78 mg/dL
same,Activity,Rattus norvegicus [8],89 mg/dL
same,Activity,Rattus norvegicus [9],88.3 mg/dL
same,Activity,Rattus norvegicus [10],45.8 U/dl
same,Activity,Rattus norvegicus [11],93.3 mg/dL
same,Activity,Rattus norvegicus [12],244 g
same,Activity,Rattus norvegicus [13],101.9 mg/dL
same,Activity,Rattus norvegicus [14],69.01 mg/dL
same,Activity,Rattus norvegicus [15],61 mg/dL
same,Activity,Rattus norvegicus [16],151.9 mg/dL
same,Activity,Rattus norvegicus [17],Active
same,Activity,Rattus norvegicus [18],127.2 mg/dL
same,Activity,Rattus norvegicus [19],77.5 mg/dL
same,Activity,Rattus norvegicus [20],107.5 mg/dL
O=[N+]([O-])c1cc(S(=O)(=O)Nc2ccc(Br)cc2)cc2c1Nc1ccccc1O2,Activity,Rattus norvegicus [2],85.42 mg/dL
same,Activity,Rattus norvegicus [3],148.35 mg/dL
same,Activity,Rattus norvegicus [5],95.31 mg/dL
same,Activity,Rattus norvegicus [6],165.8 mg/dL
same,Activity,Rattus norvegicus [7],119.64 mg/dL
same,Activity,Rattus norvegicus [8],111.4 mg/dL
same,Activity,Rattus norvegicus [13],145.6 mg/dL
same,Activity,Rattus norvegicus [14],89.58 mg/dL
same,Activity,Rattus norvegicus [16],172.2 mg/dL
same,Activity,Rattus norvegicus [18],165.6 mg/dL
same,Activity,Rattus norvegicus [19],137.5 mg/dL
same,Activity,Rattus norvegicus [20],157.5 mg/dL
COc1ccc(CNS(=O)(=O)c2cc3c(c([N+](=O)[O-])c2)Nc2ccccc2O3)cc1,Activity,Rattus norvegicus [2],102.08 mg/dL
same,Activity,Rattus norvegicus [5],102.6 mg/dL
same,Activity,Rattus norvegicus [14],85.93 mg/dL
CC(C)c1ccc(NS(=O)(=O)c2cc3c(c([N+](=O)[O-])c2)Nc2ccccc2O3)cc1,Activity,Rattus norvegicus [2],86.45 mg/dL
same,Activity,Rattus norvegicus [3],124.33 mg/dL
same,Activity,Rattus norvegicus [5],74.28 mg/dL
same,Activity,Rattus norvegicus [7],106 mg/dL
same,Activity,Rattus norvegicus [8],96.66 mg/dL
same,Activity,Rattus norvegicus [14],91.74 mg/dL
same,Activity,Rattus norvegicus [19],98 mg/dL
O=[N+]([O-])c1cc(S(=O)(=O)Nc2ccc(Cl)cc2)cc2c1Nc1ccccc1O2,Activity,Rattus norvegicus [2],91.66 mg/dL
same,Activity,Rattus norvegicus [3],100.36 mg/dL
same,Activity,Rattus norvegicus [5],106.25 mg/dL
same,Activity,Rattus norvegicus [7],76.9 mg/dL
same,Activity,Rattus norvegicus [8],106.23 mg/dL
same,Activity,Rattus norvegicus [14],60.93 mg/dL
same,Activity,Rattus norvegicus [19],93.77 mg/dL
CC(C)N(C(C)C)S(=O)(=O)c1cc2c(c([N+](=O)[O-])c1)Nc1ccccc1O2,Activity,Rattus norvegicus [2],63.05 mg/dL
same,Activity,Rattus norvegicus [5],67.5 mg/dL
same,Activity,Rattus norvegicus [14],69.44 mg/dL
CC(NS(=O)(=O)c1cc2c(c([N+](=O)[O-])c1)Nc1ccccc1O2)c1ccccc1 (stereo not given),Activity,Rattus norvegicus [2],77.74 mg/dL
same,Activity,Rattus norvegicus [5],78.26 mg/dL
same,Activity,Rattus norvegicus [14],94.28 mg/dL
O=[N+]([O-])c1cc(S(=O)(=O)Nc2cccc(F)c2)cc2c1Nc1ccccc1O2,Activity,Rattus norvegicus [2],87.88 mg/dL
same,Activity,Rattus norvegicus [5],95.45 mg/dL
same,Activity,Rattus norvegicus [14],93.94 mg/dL
Cc1ccccc1NS(=O)(=O)c1cc2c(c([N+](=O)[O-])c1)Nc1ccccc1O2,Activity,Rattus norvegicus [2],73.33 mg/dL
same,Activity,Rattus norvegicus [3],123.21 mg/dL
same,Activity,Rattus norvegicus [5],52.43 mg/dL
same,Activity,Rattus norvegicus [7],100 mg/dL
same,Activity,Rattus norvegicus [8],100.44 mg/dL
same,Activity,Rattus norvegicus [14],87.93 mg/dL
same,Activity,Rattus norvegicus [19],97.32 mg/dL
O=[N+]([O-])c1cc(S(=O)(=O)Nc2ccccc2)cc2c1Nc1ccccc1O2,Activity,Rattus norvegicus [2],100 mg/dL
same,Activity,Rattus norvegicus [5],102.6 mg/dL
same,Activity,Rattus norvegicus [14],118.22 mg/dL
Cc1ccc(NS(=O)(=O)c2cc3c(c([N+](=O)[O-])c2)Nc2ccccc2O3)c(C)c1,Activity,Rattus norvegicus [2],89.88 mg/dL
same,Activity,Rattus norvegicus [5],93.55 mg/dL
same,Activity,Rattus norvegicus [14],85.42 mg/dL
O=[N+]([O-])c1cc(S(=O)(=O)N2CCOCC2)cc2c1Nc1ccccc1O2,Activity,Rattus norvegicus [2],61.56 mg/dL
same,Activity,Rattus norvegicus [5],59.35 mg/dL
same,Activity,Rattus norvegicus [14],65.27 mg/dL
O=[N+]([O-])c1cc(S(=O)(=O)Nc2ccccc2O)cc2c1Nc1ccccc1O2,Activity,Rattus norvegicus [2],85 mg/dL
same,Activity,Rattus norvegicus [5],71.38 mg/dL
same,Activity,Rattus norvegicus [14],88.88 mg/dL
CN(CCOc1ccc(CC2SC(=O)NC2=O)cc1)c1ccccn1 (stereo not given) [ROSIGLITAZONE],IC50,Hepatocyte [21],225 µM
same,IC50,Hepatocyte [22],165 µM
COc1ccc(NS(=O)(=O)c2cc3c(c([N+](=O)[O-])c2)Nc2ccccc2O3)cc1,Activity,Rattus norvegicus [2],120.31 mg/dL
same,Activity,Rattus norvegicus [3],130.35 mg/dL
same,Activity,Rattus norvegicus [5],116.66 mg/dL
same,Activity,Rattus norvegicus [7],107.14 mg/dL
same,Activity,Rattus norvegicus [8],96.07 mg/dL
same,Activity,Rattus norvegicus [14],74.47 mg/dL
same,Activity,Rattus norvegicus [19],91.42 mg/dL
NS(=O)(=O)c1cc2c(c([N+](=O)[O-])c1)Nc1ccccc1O2,Activity,Rattus norvegicus [2],69.79 mg/dL
same,Activity,Rattus norvegicus [3],124.2 mg/dL
same,Activity,Rattus norvegicus [5],65.62 mg/dL
same,Activity,Rattus norvegicus [7],122.85 mg/dL
same,Activity,Rattus norvegicus [8],112.31 mg/dL
same,Activity,Rattus norvegicus [14],51.04 mg/dL
same,Activity,Rattus norvegicus [19],105.72 mg/dL
CCCNS(=O)(=O)c1cc2c(c([N+](=O)[O-])c1)Nc1ccccc1O2,Activity,Rattus norvegicus [2],88.7 mg/dL
same,Activity,Rattus norvegicus [5],75.48 mg/dL
same,Activity,Rattus norvegicus [14],98.7 mg/dL
O=[N+]([O-])c1cc(S(=O)(=O)NCc2ccco2)cc2c1Nc1ccccc1O2,Activity,Rattus norvegicus [2],86.36 mg/dL
same,Activity,Rattus norvegicus [3],115.43 mg/dL
same,Activity,Rattus norvegicus [5],96.21 mg/dL
same,Activity,Rattus norvegicus [7],83.89 mg/dL
same,Activity,Rattus norvegicus [8],81.89 mg/dL
same,Activity,Rattus norvegicus [14],100.76 mg/dL
same,Activity,Rattus norvegicus [19],80 mg/dL
CCN(CC)S(=O)(=O)c1cc2c(c([N+](=O)[O-])c1)Nc1ccccc1O2,Activity,Rattus norvegicus [2],113.54 mg/dL
same,Activity,Rattus norvegicus [5],122.92 mg/dL
same,Activity,Rattus norvegicus [14],118.75 mg/dL
O=[N+]([O-])c1cc(S(=O)(=O)N2CCCCC2)cc2c1Nc1ccccc1O2,Activity,Rattus norvegicus [2],69.35 mg/dL
same,Activity,Rattus norvegicus [5],72.67 mg/dL
same,Activity,Rattus norvegicus [14],78.41 mg/dL
O=[N+]([O-])c1cc(S(=O)(=O)NCc2cccs2)cc2c1Nc1ccccc1O2,Activity,Rattus norvegicus [2],114.06 mg/dL
same,Activity,Rattus norvegicus [5],86.45 mg/dL
same,Activity,Rattus norvegicus [14],84.37 mg/dL
O=[N+]([O-])c1cc(S(=O)(=O)NC2CCCCC2)cc2c1Nc1ccccc1O2,Activity,Rattus norvegicus [2],85.63 mg/dL
same,Activity,Rattus norvegicus [5],90.22 mg/dL
same,Activity,Rattus norvegicus [14],90.2 mg/dL
